Patent US4996225A, “Tri-phenyl alkane derivatives and their oestrogenic, anti-oestrogenic and progestanic uses” (Farmos Group Ltd., priority 1982, dated 1991)

Key:
[1] = system: immature mouse uterus; test: oestrogenic effect, uterus weight of immature mice; assay type: in vivo
Protocol: (§1) The oestrogen-antiestrogen (progesterone) effect of the new compounds in vivo was determined as follows: (1) The oestrogenic properties were determined by administering the new compounds, suspended in sesame oil, subcutaneously to 21 days old immature mice on three consecutive days. The mice were killed on the fourth day and the uterus was weighed. […] The weight correlates with the oestrogenic effect of the compound tested. […] In this case, the ability of the molecules to inhibit oestrogen-induced uterus weight increase was also investigated.

[2] = system: MCF-7 cell line (human mammary adenocarcinoma); test: anti-tumour effect in vitro, growth of MCF-7 cell line (bioluminescence assay, intracellular ATP); assay type: cell-based; details: read-out: Antitumour effect against MCF-7 cell line (IC50 = concentration of compound where 50% inhibition of cell growth could be seen)
Protocol: The anti-tumour effect was studied in vitro as follows:
The amount of living cells after 4 h, 24 h and 48 h incubations were determined by bioluminescence assay (intracellular ATP determination).
inhibition of cell growth could be seen.

[3] = system: DMBA-induced rat mammary adenocarcinomas; test: antitumour effect in vivo against DMBA-induced rat mammary adenocarcinoma; details: rat, in vivo
Protocol: The anti-tumour effect was investigated in vivo against DMBA-induced rat mammary adenocarcinomas, transplantable mammary and ovarial adenocarcinoma and transplantable prostatic squamous cell carcinoma by the following methods:
Mammary adenocarcinomas were induced by DMBA in 35-40 days old female rats. […] Tumour size and numbers of tumours were evaluated twice a week. Tumour sizes in the control group, treated with solvent, were compared with the test groups.
The size refers to the width×height of the tumour. The growth rate is a difference between sizes compared with that of the first day of the treatment.

[4] = system: estradiol induced weight increase in immature mouse uterus; test: antiestrogenic effect, inhibition of oestrogen-induced uterus weight increase in immature mice; assay type: in vivo; details: for inhibition of estradiol-induced uterus weight increase / inhibition of estradiol-induced uterus weight increase (in words): 5 mg/kg, estradiol 5 μg/kg
Protocol: as §1

[5] = system: immature mouse uterus; test: progestanic effect, uterus weight of immature mice (alone or with medroxyprogesterone acetate); assay type: in vivo
Protocol: Medroxy-progesterone acetate, which decreases uterus weight, was used as reference.
The progestanic effects of the compounds were measured as described earlier.

Compound	increase in uterus weight ([1]; 5 mg/kg)	IC50 [2] [µM]	amount of new tumours (in words) [3]	growth rate of the tumours (in words) [3]	inhibition of estradiol-induced uterus weight increase [4]	further results
ClCC[C@@H](c1ccccc1)[C@H](c1ccccc1)c1ccc(OCCN2CCCC2)cc1 (relative stereo) [Compound 27, 4-chloro-1,2-diphenyl-1-[4-[2-(1-pyrrolidinyl)-ethoxy]phenyl]-butane]	≤ 55%	1 to 5	the amount of new tumours decreased	the growth rate of the tumours decreased	less than 33%	–
ClCC[C@H](c1ccccc1)[C@H](c1ccccc1)c1ccc(OCCN2CCCC2)cc1 (relative stereo) [Compound 28, 4-chloro-1,2-diphenyl-1-[4-[2-(1-pyrrolidinyl)-ethoxy]phenyl]-butane]	≤ 55%	5 to 10	the amount of new tumours decreased	the growth rate of the tumours decreased	68-100%	–
OCCC/C(=C(/c1ccccc1)c1ccc(O)cc1)c1ccccc1 [6, (E)-isomer]	–	5 to 10	–	–	–	–
CN(C)CCOc1ccc(/C(=C(\CCCl)c2ccccc2)c2ccccc2)cc1 [Compound 18, 4-chloro-1,2-diphenyl-1-[4-[2-(N,N-dimethylamino)ethoxy]phenyl]-1-butene]	–	1 to 5	–	–	–	effect given alone: estrogenic (in words) ([1]; given alone): estrogenic; increase in the weights of mice uterus, given alone ([1]; given alone): 20%; effect with medroxyprogesterone (in words) ([5]; with medroxyprogesterone 0.06 mg/kg): no effect; effect with estradiol (in words) ([4]; with estradiol 0.05 mg/kg): not anti-; reduction in the weights of mice uterus, with estradiol ([4]; with estradiol 0.05 mg/kg): < 10%
CC(=O)OCC/C(=C(\c1ccccc1)c1ccc(OCCN(C)C)cc1)c1ccccc1 [Compound 19]	≤ 30%	1 to 5	–	only the growth rate of the tumours was reduced	–	inhibition of estradiol-induced uterus weight increase (in words) [4]: did not inhibit
CN(C)CCOc1ccc(/C(=C(/CCO)c2ccccc2)c2ccccc2)cc1 [Compound 20, 1,2-diphenyl-1-[4-[2-(N,N-dimethylamino)ethoxy]phenyl]-1-buten-4-ol]	less than 30%	–	–	only the growth rate of the tumours was reduced	less than 33%	increase in uterus weight (in words) ([1]; 5 mg/kg): statistically significant increase in uterus weight; inhibition of estradiol-induced uterus weight increase (in words) [4]: inhibited the uterus weight increase in a statistically significant manner
CCN(CC)CCOc1ccc(/C(=C(/CCCl)c2ccccc2)c2ccccc2)cc1 [Compound 24, 4-chloro-1,2-diphenyl-1-[4-[2-(N,N-diethylamino)ethoxy]phenyl]-1-butene]	≤ 55%	1 to 5	–	only the growth rate of the tumours was reduced	less than 67%	–
ClCC/C(=C(\c1ccccc1)c1ccc(OCCN2CCCC2)cc1)c1ccccc1 [Compound 25, 4-chloro-1,2-diphenyl-1-[4-[2-(1-pyrrolidinyl)-ethoxy]phenyl]-1-butene]	≤ 55%	< 5	the amount of new tumours decreased	the growth rate of the tumours decreased	68-100%	–
ClCC/C(=C(/c1ccccc1)c1ccc(OCCN2CCCC2)cc1)c1ccccc1 [Compound 26, 4-chloro-1,2-diphenyl-1-[4-[2-(1-pyrrolidinyl)-ethoxy]phenyl]-1-butene]	≤ 30%	1 to 5	–	only the growth rate of the tumours was reduced	less than 33%	–
CC(=O)O[C@]1(C(C)=O)CC[C@H]2[C@@H]3C[C@H](C)C4=CC(=O)CC[C@]4(C)[C@H]3CC[C@@]21C [Medroxyprogesterone acetate, reference compound]	–	–	–	–	–	inhibition in the weight of immature mouse uterus ([5]; positive control): up to 40%
